Assay results: US20220409650A1, “COMPOSITIONS AND METHODS FOR ASCAROSIDE MODIFICATION OF MAMMALIAN MICROBIOTA” (Holoclara, Inc., priority 2019, published 2022)
Entries after “also recorded” stand apart in the source; their conditions may differ.

Tests used:
Assay type in all cases: in vivo, C57BL6 mice
[1] = Stool consistency (Bristol Stool Chart) of treated mice; details: Experiment 3, mice, 12.5 μg/mouse IP, stools at end, vs untreated control (FIG. 10)
Protocol: For Experiment 3, ten mice were assigned Group 7 to be treated with DMSO control. Eight mice were assigned to Group 8 to be treated with 12.5 μg of Ascr #7/mouse per injection (0.5 mg/kg dose assuming a 25 gm mouse). Nine mice were assigned to Group 9 to be treated with 12.5 μg of Compound 1/mouse per injection (0.5 mg/kg dose assuming a 25 gm mouse). To make the master stocks, Ascr #7 and Compound 1 were dissolved in DMSO to make 10 μg/uL of the Ascr #7 and Compound 1 master stocks and 12.5 μL of each master stocks were aliquoted into glass vials for each day of injection. Mice from each group were IP injected three times a week for 3 weeks and one day for a total of 10 injections. On each day of IP injection, 987.5 μL of ultra-pure water is added to each master stocks to make 0.125 μg/uL of Ascr #7 and Compound 1 working stocks and 100 μL of each was IP injected into mice. As will be described in greater detail below, Compound 1 refers to the ascaroside derisive:
The methods and compositions described herein may also be used to treat constipation. Constipation, which accompanies various diseases, may be a symptom of underlying defects in either transit of fecal mass through the gut or defecation, a commonly diagnosed functional gastrointestinal disorder. […]

[2] = test system: gut microbiota; assay: Gut microbiota diversity (Shannon alpha diversity) from shotgun metagenomic sequencing of stool of treated mice; details: stools at end
Protocol: (§1) In the methods described for each of these examples, C57BL6 mice at 6 weeks of age were allowed to be appropriately acclimated before the start of the change in diet and treatments. For Experiment 1 (Example 1), thirty-two mice were evenly distributed into four groups with Group 1 as the control diet, no treatment, Group 2 as the high-fat diet, treat with DMSO control, Group 3 as the high-fat diet, treated with 12.5 μg of Ascr #7/mouse per injection (0.5 mg/kg dose assuming a 25 gm mouse), Group 4 as the high-fat diet, treated with 4.1 μg Ascr #9/mouse per injection (0.164 mg/kg dose assuming a 25 gm mouse). […]
(§2) DNA was extracted using the Qiagen MagAttract PowerSoil DNA KF kit (Formerly MO Bio PowerSoil DNA Kit) using a KingFisher robot. DNA quality was evaluated visually via gel electrophoresis and quantified using a Qubit 3.0 fluorometer (Thermo-Fischer, Waltham, Mass., USA). […]
(§3) Paired-end sequencing (150 bp×2) was done on a NextSeq 500 in medium-output mode. Shotgun metagenomic sequence reads were processed with the Sunbeam pipeline. […] Processing took part in four steps: adapter removal, read trimming, low-complexity reads removal, and host-sequence read removal. […] Low-complexity sequences were detected with Komplexity v0.3.6.
(§4) The remaining reads were taxonomically classified using Kraken2 with the MiniKraken2_v1 database. […]

[3] = test system: Akkermansia; assay: Differential abundance of Akkermansia in gut microbiota of treated mice (stool sequencing); details: Experiment 1, mice, 31 days of treatment, stools at end, vs control (FIG. 9)
Protocol: as §1, §2, §3, §4

[4] = test system: Adlercreutzia; assay: Differential abundance of Adlercreutzia in gut microbiota of treated mice (stool sequencing); details: Experiment 1, mice, 31 days of treatment, stools at end, vs control (FIG. 9)
Protocol: as §1, §2, §3, §4

[5] = test system: Bifidobacterium (e.g., Bifidobacterium catenulatum); assay: Differential abundance of Bifidobacterium in gut microbiota of treated mice (stool sequencing); details: stools at end
Protocol: as §1, §2, §3, §4

SMILES | proportion of feces with Type 4 stools (smooth and soft, Bristol Stool Chart) [1] | alpha diversity of the gut microbiota (Shannon's diversity index) ([2]; Experiment 1, high-fat diet mice, 4.1 μg/mouse IP three times a week for 31 days, vs control (FIG. 4)) | amount of Akkermansia in the gut microbiota [3] | amount of Adlercreutzia in the gut microbiota [4] | alpha diversity of the gut microbiota (Shannon's diversity index) ([2]; Experiment 3, mice, 12.5 μg/mouse IP three times a week, 10 injections, vs DMSO control (FIG. 3)) | amount of Bifidobacter in the gut microbiota ([5]; Experiment 1, mice, 31 days of treatment, vs control (FIG. 9)) | amount of Bifidobacterium catenulatum in the gut microbiota ([5]; Experiment 3, mice, vs control (FIG. 8))
C[C@H](CC/C=C/C(=O)OC(C)(C)C)O[C@@H]1O[C@@H](C)[C@H](O)C[C@H]1O [Compound 1, tert-butyl (2E,6R)-6-{[(2R,3R,5R,6S)-3,5-dihydroxy-6-methyloxan-2-yl]oxy}hept-2-enoate] | significantly higher proportion of feces with Type 4 stools |  |  |  |  |  | 
C[C@H](CCC(=O)O)O[C@@H]1O[C@@H](C)[C@H](O)C[C@H]1O [Ascr #9] |  | increase in alpha diversity; also recorded: increased | increase in the overall amount | increase in the overall amount |  |  | 
C[C@H](CC/C=C/C(=O)O)O[C@@H]1O[C@@H](C)[C@H](O)C[C@H]1O [Ascr #7] | significantly higher proportion of feces with Type 4 stools |  | increases; also recorded: increase in the overall amount | increases; also recorded: increase in the overall amount | increased alpha diversity; also recorded: substantial increase in diversity | increases | specific increase; also recorded: increased significantly
